From PMC10877577 (ACS Chemical Biology, 2024)
Entries after “also recorded” stand apart in the source; their conditions may differ.

B1: aMinoC1: anti-minocycline single-domain antibody clone 1 from immunized alpaca, tested as sdAb-Fc (antibody, V domains shown)
VH: QVQLESGGGLVQPGSSLRLSCAASGRTFSSYNIGWFRQAPKEREFVAAISWSGARTYYADSVKGRFTISRDNAKNTVYLQMNSLKPEDTAVYSCAAGRGWGTEAILDYWGQGTQVSSA

Experiments:
aMinoC1 sdAb = experiment: SPR of peptide-Fc or small-molecule analytes against aMinoC1; format: binding, alpaca; conditions: molecules closely related to minocycline
Experimental: (§1) Binding assays were carried out using 1x HBS-EP+ running buffer. Various concentrations (2.5 μM with 2-fold serial dilutions) of the analyte were injected for 150 s at 30 μL/min with 150 s dissociation time. Glycine-HCl (pH 2.0) was used as the regeneration buffer for the sensor chips. For the rechallenge experiment, aMinoC1 was immobilized on a CM5 sensor chip and CX7C peptide-Fc conjugates were loaded at 100 nM and injected as the analyte for 150 s at 30 μL/min. Following the injection of peptide-Fc, a small molecule at 1 μM was injected for 300 s at 30 μL/min, using dual injection function on a Biacore 8k instrument, to dissociate the peptide-Fc from the aMinoC1-peptide complex. The system was then washed using HBS-P^+ buffer for 300 s at 30 μL/min prior to rechallenge with peptide-Fc. The cycle was repeated three times following a final dissociation step of 300 s. For the alanine scanning experiments, the anti-minocycline antibody (sdAb-muIgG2a-Fc fusion) was captured on a Protein A series S sensor chip, to a density of 3000 RU. […] Glycine-HCl (pH 1.5) was used as the regeneration buffer. In each case, flow cell 1 was used for reference subtraction, and a “0 concentration” sensogram of buffer alone was used as a double reference subtraction to factor for drift. Data analysis was carried out using Biacore T200 Evaluation Software, version 3.0, and Biacore Insight evaluation software. […]

aMinoC22 sdAb = experiment: SPR of related small molecules against aMinoC22; format: binding, alpaca; conditions: molecules closely related to minocycline
Experimental: as §1

aMinoC1-peptide complex = experiment: SPR rechallenge: small-molecule-driven dissociation of peptide-Fc from immobilized aMinoC1; format: binding; conditions: peptide-Fc 100 nM, small molecule 1 μM
Experimental: Binding assays were carried out using 1x HBS-EP+ running buffer. Various concentrations (2.5 μM with 2-fold serial dilutions) of the analyte were injected for 150 s at 30 μL/min with 150 s dissociation time. Glycine-HCl (pH 2.0) was used as the regeneration buffer for the sensor chips. For the rechallenge experiment, aMinoC1 was immobilized on a CM5 sensor chip and CX7C peptide-Fc conjugates were loaded at 100 nM and injected as the analyte for 150 s at 30 μL/min. Following the injection of peptide-Fc, a small molecule at 1 μM was injected for 300 s at 30 μL/min, using dual injection function on a Biacore 8k instrument, to dissociate the peptide-Fc from the aMinoC1-peptide complex. The system was then washed using HBS-P^+ buffer for 300 s at 30 μL/min prior to rechallenge with peptide-Fc. The cycle was repeated three times following a final dissociation step of 300 s. For the alanine scanning experiments, the anti-minocycline antibody (sdAb-muIgG2a-Fc fusion) was captured on a Protein A series S sensor chip, to a density of 3000 RU. […] Glycine-HCl (pH 1.5) was used as the regeneration buffer. In each case, flow cell 1 was used for reference subtraction, and a “0 concentration” sensogram of buffer alone was used as a double reference subtraction to factor for drift. Data analysis was carried out using Biacore T200 Evaluation Software, version 3.0, and Biacore Insight evaluation software. The 1:1 Langmuir binding model was used to calculate the association (ka), dissociation (kd) rate constants, and equilibrium dissociation constant (KD).

[1] = test system: MinoCAR-transduced PBMC against SupT1-EGFR+ target cells; format: cell-based; conditions: 0.1, 1 and 10 μM, 24 h, 1:2 E/T
Experimental: Transduced CAR T cells were determined by staining for the transduction marker RQR8 and normalized by the addition of nontransduced T cells. Effector cells were cocultured with 5.0 × 10^4 number of target cells (SupT1-NT, SupT1-EGFR+, SKOV3-mKate) to achieve the desired effector cell to target ratio. […] Cocultures were incubated for 24–72 h at 37 °C and 5% CO2. After incubation, plates were centrifuged at 400g for 5 min, and the supernatant containing secreted cytokines was collected for cytokine analysis. Cells were stained with anti-hCD34-APC and anti-CD3-PeCy7 to differentiate effector T cells and target cells. Cells were washed with 300 μL o PBS and stained with SYTOX Blue Dead Cell Stain dye. The percentage of target cell survival was measured relative to the number of live target cells cocultured with nonspecific CAR T cells or nontransduced PBMCs.

TetRB = conditions: cited from earlier work
[2] = SPR of anti-minocycline sdAb-Fc clones binding to minocycline
Experimental: as §1

[3] = Isothermal titration calorimetry of aMinoC1 binding to minocycline; conditions: sdAb-Fc 2 μM titrated with minocycline 50 μM, 25 °C; read-out: KD (ITC)
Experimental: ITC measurements were performed using the PEAQ-ITC nonautomated (MicroCal) at 25 °C. The antibody sample was dialyzed overnight using 5 L of PBS (20 mM Na3PO4, 150 mM NaCl, pH 7.4). […] The concentration of the anti-minocycline sdAb (as murine IgG2a Fc fusion) was determined using extinction coefficients ε280 nm = 31,065 M^–1 cm^–1.

[4] = nanoDSF thermal unfolding of aMinoC1; format: physicochemical
Experimental: A dye-free protocol was used whereby the intrinsic fluorescence of tryptophan and tyrosine was measured by scanning samples at 330 and 350 nm to determine protein unfolding. […] Melting scan was carried out by setting the run at 1 °C/min temperature increments from 20 to 95 °C. Tm was calculated as first derivative of 350/330 nm ratio.

Molecule | binding to aMinoC1 (SPR) (aMinoC1 sdAb) | binding to aMinoC22 (SPR) (aMinoC22 sdAb) | GWARA-Fc dissociation from immobilized aMinoC1 on small-molecule injection (aMinoC1-peptide complex) | peptide-Fc (HWAQA, PWAYS and QWAMM) dissociation from immobilised aMinoC1 on small-molecule injection (aMinoC1-peptide complex) | effect of other small molecules on MinoCAR cytotoxicity [1] | Kd (TetRB) | ka [2] | kd [2] | Kd [3] | first unfolding midpoint (Tm50) ([4]; aMinoC1 alone, PBS pH 7.4) | improvement of Tm50 with minocycline ([4]; minocycline 1 nM to 2.5 mM) | Tm50 on coincubation with minocycline ([4]; minocycline ranging from 1 nM to 2.5 mM)
CN(C)[C@@H]1C(O)=C(C(N)=O)C(=O)[C@@]2(O)C(O)=C3C(=O)c4c(O)cccc4[C@@](C)(O)[C@H]3C[C@@H]12 [tetracycline] | Neither sdAb showed an interaction; also recorded: lack of binding; also recorded: without cross-reactivity | Neither sdAb showed an interaction; also recorded: lack of binding | No enhanced dissociation | No enhanced dissociation | not affected | 2.8 nM | – | – | – | – | – | –
B1 | – | – | – | – | – | – | 1.13e+06 M⁻¹ s⁻¹ | 0.036 s⁻¹ | 24.9 nM | 79.5 °C | over 10 °C | 89.6 °C
